Counter-ions that a name gives are not always drawn.
Experiment: Preliminary test: dissolution of compound A with an acidic regulator
Type: physicochemical
Conditions: with an acidic regulator (citric acid or tartaric acid)
Source text: To improve the solubility of insoluble medicines, surfactants, acid-base regulators and the like are mostly used in the prior art. […] However, the granules obtained in the preliminary study process can solve the problem of solubility, but the stability is insufficient. Therefore, how to improve the solubility of the active substance provided by the present invention and ensure the stability has become a difficult point in a medicine technology.

Dissolution of compound A: complete dissolution
SMILES: CCn1nnc(-c2ccc(OCCC(C)(C)CCN3CCN(c4ccnc(N)c4)S3(=O)=O)nc2)n1 [compound A, 2-(2-aminopyridine-4-yl)-5-(5-((5-(2-ethyl-2H-tetrazole-5-yl)pyridine-2-yl)-oxy)-3,3-amyldimethyl)-1,2,5-thiadiazolidin 1,1-dioxide hydrochloride]

Reference: patent US20230263789A1, “PHARMACEUTICAL COMPOSITION AND PREPARATION METHOD” (JIANGSU KANION PHARMACEUTICAL CO., LTD., priority 2020, published 2023)
